Experimental data taken from paper PMC8125089, “Synthesis, Structure, Carbohydrate Enzyme Inhibition, Antioxidant Activity, In Silico Drug-Receptor Interactions and Drug-Like Profiling of the 5-Styryl-2-Aminochalcone Hybrids” (Molecules, 2021).
Read-outs that look alike come from different tables or passages of the source.

Legend:
[1] = DPPH radical scavenging assay; conditions: free radical scavenging; mean ± SD of three independent experiments
Description: (§1) Reduced or lack of antioxidant activity of these compounds was attributed to the presence of intramolecular N-H···O hydrogen bond between amino and kenone group of the 2-aminochalcones and their sulfanamido derivatives which is envisaged to deactivate the unsaturated moiety. […] A combination of the styryl and the electrophilic α,β-unsaturated carbonyl arms on the same molecular framework encouraged us to evaluate the test compounds for antioxidant properties through the DPPH and NO radical scavenging assays. […] Compound 2a has potential to inhibit both α-glucosidase and α-amylase activities, and to reduce oxidative stress. […] The observed free radical scavenging activities of these molecular hybrids is presumably due to the presence of styryl arm on the intramolecularly hydrogen bonded 2-aminochalcone scaffold.
The antioxidant activities of the test compounds against ascorbic acid (Sigma Aldrich, Saint Louis, Missouri, USA) as a positive control were evaluated using 2,2-diphenyl-1-picrylhydrazyl (DPPH) radical scavenging assay developed by Zhu et al. as described in our previous study. Triplicate solutions (20 µL) of the test compounds and ascorbic acid in DMSO (final concentrations: 5, 10, 25, 50, and 100 µM) were added into each designated well of a 96-well plate. A solution of 0.20 mM DPPH (20 µL) in methanol was added to each well, and the 96-well plate was wrapped with aluminum foil and incubated in the dark for 45 min. Five absorbance readings were recorded at 512 nm using Varioskan flash microplate spectrophotometer reader. The average values obtained from the absorbance readings were used to determine the IC50 and standard deviation values.

[2] = molecular target: α-amylase; test: α-Amylase inhibition assay (α-Amylase Inhibitor Screening Kit); assay type: biochemical; conditions: mean ± SD of three independent experiments
Experimental: The α-amylase assay was performed in triplicate using a 96-well plate following the procedure by the manufacturer as outlined in the α-Amylase Inhibitor Screening Kit (Catalog No. K482; Bio Vision). […] For inhibitor control (10 µL of α-amylase inhibitor and 40 µL of assay buffer were added to 3 wells), enzyme control (50 µL of assay buffer was added to three wells) and 50 µL of the test compounds were added into the remaining wells. A solution of α-amylase enzyme (50 µL) prepared by adding 490 µL of assay buffer to 10 µL of α-amylase enzyme was added to each of the wells containing the reaction mixture to initiate the reaction. The plate was incubated for 10 min at room temperature in the dark. Five different absorbance readings were recorded for each triplicate run at a wavelength of 405 nm using Varioskan flash microplate spectrophotometer (Thermo Scientific, Waltham, MA, USA). The IC50 and SD values were calculated using graph pad prism.

[3] = NO free radical scavenging assay (sodium nitroprusside, Griess reaction); conditions: mean ± SD of three independent experiments
Description: as §1
Nitric oxide was generated from sodium nitroprusside and measured by Griess’ reaction following the literature method. The experiment was done in triplicate with ascorbic acid (vitamin C) used as a positive control for the assay. In a 96 well plate, 5 μL of the test compounds (0.1, 0.5, 1.0, 5.0 and 10.0 μM in methanol) or the positive control were mixed with 5 μL of 10 mM sodium nitroprusside prepared in phosphate buffered saline (pH = 7.4) and allowed to incubate at room temperature for 2.5 h. Afterwards, 30 μL of the Griess reagent (a mixture of 0.2% N-(1-naphthyl)ethylenediamine dihydrochloride and 2% sulfanilamide in […]) was added to each well and the mixtures were and allowed to stand at room temperature for 30 min. Five absorbance readings were recorded at 546 nm using Varioskan flash microplate spectrophotometer reader.

[4] = molecular target: yeast α-glucosidase from Saccharomyces cervisiae (Saccharomyces cerevisiae, UniProt P53341); test: biochemical
Experimental: All the tests and analyses were performed in triplicates following a modified published protocol described in our previous study. […] 2.5, 5, 10, 25 and 50 µM. α-Glucosidase solution (0.48 u/mL, 20 µL), phosphate buffer (100 mM, pH 6.8; 30 µL) and the test sample (20 µL) as well as the reference standard were added in the designated wells, and the reaction mixtures were incubated at 37 °C for 10 min. 2 mM p-nitrophenyl-α-D-glucopyranoside (20 µL) was added to each of the wells containing reaction mixture to initiate the reaction. The reaction was pre-incubated for 30 min at 37 °C. The reaction was stopped by the addition of 20 μL of a solution of sodium carbonate (200 mM) to each well. Five absorbance readings were recorded for each triplicate run at a wavelength of 400 nm using Varioskan flash microplate spectrophotometer (Thermo Scientific, Waltham, MA, USA). The average values obtained from the readings were used to determine the IC50 and standard deviation values. The values were calculated by the nonlinear regression analysis and expressed as the mean SD of three distinct experiments using Graph Pad Prism software.

[5] = system: A549 cells; test: MTT cytotoxicity assay on A549 cells; assay type: cell-based, human; conditions: 24 h treatment
Experimental: (§2) Metabolic diseases such as diabetes require a stable long-term therapy accompanied by well tolerated and low toxicity, and this encouraged us to evaluate the safety profile of 2a and 3e as potential antidiabetic agents at least in vitro. The compounds were evaluated for cytotoxicity against the normal monkey kidney cells (Vero cells) and the adenocarcinomic human epithelial (A549) cell line using the 3-(4,5-dimethylthiazol-2-yl)-2, 5-diphenyltetrazolium (MTT) assay.
(§3) The cytotoxicity activity of compounds 2a and 3e was evaluated against doxorubicin (positive control) using the 3-(4,5-dimethylthiazol-2-yl)-2,5-diphenyltetrazolium bromide (MTT) assay following a modification of a literature method by Mosmann. The Vero and A549 cells were maintained in Dulbecco′s modified Eagle′s medium (DMEM; Gibco) supplemented with 10% Fetal bovine serum (FBS) and 1% penicillin/streptomycin in culture flasks and incubated at 37 °C in 5% CO2. When the cells reached 85% confluency, they were detached using 2% trypsin. Cell count was performed using a handheld automated cell counter (Scapter 3.0™, Merck). The cells were seeded at 1 × 10^5 cells/well and incubated overnight to allow cell attachment. After 24 h, the cells were treated with different concentrations (0, 2.5, 5, 10, 25, 50, 100 µM) of the test compounds and the reference stand. The cells were incubated for 24 h followed by treatment with 20 µL of MTT solution (5 mg/mL). After 4 h incubation period, DMSO (100 µL) was added to each well to dissolve the formazan crystals. Five absorbance readings were recorded at 517 nm using Varioskan flash microplate spectrophotometer reader.

[6] = system: Vero cells; test: MTT cytotoxicity assay on Vero cells; assay type: cell-based; conditions: monkey, 24 h treatment
Experimental: as §2
as §3, with “After 24 h, the cells were treated with different concentrations (0, 2.5, 5, 10, 25, 50, 100 µM) of the test compounds and the reference stand. The cells were incubated for 24 h followed by treatment with 20 µL of MTT solution (5 mg/mL). After 4 h incubation period, DMSO (100 µL) was added to each well to dissolve the formazan crystals.” left out

[7] = molecular target: α-glucosidase (Saccharomyces cerevisiae, UniProt P53341); test: Enzyme kinetic studies (Lineweaver-Burk and Dixon plots); assay type: biochemical
Experimental: The Lineweaver-Burk plot of 1/V versus 1/[S] in the presence of different concentrations of compound 2a in the case of α-glucosidase gave a series of straight lines that intersect on the x-axis (Figure 3a). […] The compound probably binds to the active site and other allosteric sites on the enzyme.
Enzyme kinetics studies were performed on compounds 2a and 3e with increasing inhibitor and substrate concentrations. In the experimental procedure, inhibitors concentrations of 0.1, 0.5, 1, 2.5 µM, and final substrate concentration were 0.1, 0.5, 1 and 5 mM were used. 5 μL of the inhibitor and 2 μL of the enzyme (α-glucosidase) were added to each well of the 96-well plate. The reaction was incubated for 20 min at room temperature. 18 μL of the substrate, PNPG (4-nitrophenyl α-D-glucopyranoside) was then added and absorbance readings recorded after every 2 min at wavelength of 400 nm using a Varioskan flash microplate spectrophotometer reader. Lineweaver-Burk plot (the inverse of velocity (1/v) against the inverse of the substrate concentration (1/[S]) were used to determining the type of inhibition, while the inhibitor constant was obtained from the Dixon plot (the inverse of velocity (1/v) against concentration of inhibitor at each substrate concentration)

[8] = mean ± SD of three independent experiments, pH 6.8, 37 °C, read-out: IC50 (SD) α-Glucosidase

Chain of yeast α-glucosidase from Saccharomyces cervisiae (P53341 whole entry): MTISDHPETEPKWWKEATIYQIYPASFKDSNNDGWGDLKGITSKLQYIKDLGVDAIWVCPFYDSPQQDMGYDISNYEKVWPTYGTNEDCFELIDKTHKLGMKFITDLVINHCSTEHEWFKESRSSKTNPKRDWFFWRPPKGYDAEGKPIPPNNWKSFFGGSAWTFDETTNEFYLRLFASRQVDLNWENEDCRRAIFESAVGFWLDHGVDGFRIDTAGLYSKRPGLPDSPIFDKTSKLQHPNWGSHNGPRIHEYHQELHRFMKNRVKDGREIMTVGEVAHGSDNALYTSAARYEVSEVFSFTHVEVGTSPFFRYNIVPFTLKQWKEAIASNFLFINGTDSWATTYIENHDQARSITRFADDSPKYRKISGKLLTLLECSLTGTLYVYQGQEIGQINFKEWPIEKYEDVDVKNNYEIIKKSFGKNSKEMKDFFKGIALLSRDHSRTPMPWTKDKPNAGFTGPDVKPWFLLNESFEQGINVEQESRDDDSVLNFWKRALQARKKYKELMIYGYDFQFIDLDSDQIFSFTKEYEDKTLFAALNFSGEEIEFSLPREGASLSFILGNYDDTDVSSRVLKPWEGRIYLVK
Chain of α-glucosidase (P53341 whole entry): as above

Row | SMILES | IC50 [1] [µM] | IC50 [2] [µM] | IC50 [3] [µM] | IC50 [4] [µM] | melting point [°C] | IC50 [5] [µM] | IC50 at 24 h ([5]; human, A549 cells) [µM] | IC50 at 24 h [6] [µM] | IC50 [4, 8] [µM] | velocity of the reaction (Vmax) ([7]; α-glucosidase in the presence of increasing inhibitor concentrations, Lineweaver-Burk plot) [µM/min] | Ki ([7]; α-glucosidase, PNPG substrate, read-out: Ki (Dixon plot)) [µM] | mode of inhibition ([7]; α-glucosidase, Lineweaver-Burk and Dixon plots)
1 | COc1ccc(/C=C/c2ccc(N)c(C(C)=O)c2)cc1 [Compound 2d, (E)-1-(2-Amino-5-(4-methoxystyryl)phenyl)ethan-1-one] | 9.3 ± 0.23 | 9 ± 0.31 | 25.9 ± 0.61 | 30.7 ± 0.42 | 139 to 140 | – | – | – | – | – | – | –
2 | COc1cccc2c1C(=O)c1c(O)c3c(c(O)c1C2=O)C[C@@](O)(C(=O)CO)C[C@@H]3O[C@H]1C[C@H](N)[C@H](O)[C@H](C)O1 [Doxorubicin, reference compound] | – | – | – | – | – | 1.14 ± 0.23 | – | – | – | – | – | –
3 | Nc1ccc(/C=C/c2ccccc2)cc1C(=O)/C=C/c1ccc(F)cc1 [Compound 3e, (E)-1-(2-Amino-5-((E)-styryl)phenyl)-3-(4-fluorophenyl)prop-2-en-1-one] | 4.2 ± 0.43 | 1.6 ± 0.52 | 20.5 ± 0.46 | – | 161 to 162 | – | 204 ± 0.55 | 220 ± 0.57 | 5.1 ± 0.61 | 0.01 ± 0.002 | 1.48 ± 0.05 | mixed mode of inhibition
4 | COc1ccc(/C=C/c2ccc(N)c(C(=O)/C=C/c3ccc(F)cc3)c2)cc1 [Compound 3h, (E)-1-(2-Amino-5-((E)-4-methoxystyryl)phenyl)-3-(4-fluorophenyl)prop-2-en-1-one] | 25.8 ± 0.43 | 7.6 ± 0.2 | 20.2 ± 0.23 | 10.5 ± 0.18 | 153 to 154 | – | – | – | – | – | – | –
5 | COc1ccc(/C=C/c2ccc(N)c(C(=O)/C=C/c3cccc(F)c3)c2)cc1 [Compound 3d, (E)-1-(2-Amino-5-((E)-4-methoxystyryl)phenyl)-3-(3-fluorophenyl)prop-2-en-1-one] | 3.9 ± 0.21 | 7 ± 0.45 | 7.9 ± 0.28 | – | – | – | – | – | 9.4 ± 0.5 | – | – | –
6 | CC(=O)c1cc(/C=C/c2ccc(F)cc2)ccc1N [Compound 2b, (E)-1-(2-Amino-5-(4-fluorostyryl)phenyl)ethan-1-one] | 15.8 ± 0.21 | 19.3 ± 0.42 | 7.2 ± 0.4 | 12.7 ± 0.16 | 149 to 150 | – | – | – | – | – | – | –
7 | Nc1ccc(/C=C/c2ccc(Cl)cc2)cc1C(=O)/C=C/c1cccc(F)c1 [Compound 3c, (E)-1-(2-Amino-5-((E)-4-Chlorostyryl)phenyl)-3-(3-fluorophenyl)prop-2-en-1-one] | 15.3 ± 0.1 | 2.4 ± 0.1 | 10.6 ± 0.3 | 12.6 ± 0.31 | 187 to 188 | – | – | – | – | – | – | –
8 | Nc1ccc(/C=C/c2ccc(F)cc2)cc1C(=O)/C=C/c1ccc(F)cc1 [Compound 3f, (E)-1-(2-Amino-5-((E)-4-fluorostyryl)phenyl)-3-(4-fluorophenyl)prop-2-en-1-one] | 18.5 ± 0.37 | 9.5 ± 0.41 | 8.8 ± 0.33 | – | – | – | – | – | 6.9 ± 0.37 | – | – | –
9 | Nc1ccc(/C=C/c2ccc(F)cc2)cc1C(=O)/C=C/c1cccc(F)c1 [Compound 3b, (E)-1-(2-Amino-5-((E)-4-fluorostyryl)phenyl)-3-(3-fluorophenyl)prop-2-en-1-one] | 6.6 ± 0.33 | 15.6 ± 0.6 | 5.3 ± 0.34 | – | 175 to 177 | – | – | – | 6.1 ± 0.24 | – | – | –
10 | CC(=O)c1cc(/C=C/c2ccc(Cl)cc2)ccc1N [Compound 2c, (E)-1-(2-Amino-5-(4-chlorostyryl)phenyl)ethan-1-one] | 10.4 ± 0.15 | 5.8 ± 0.51 | 11.6 ± 0.43 | 15.9 ± 0.34 | 137 to 138 | – | – | – | – | – | – | –
11 | Nc1ccc(/C=C/c2ccc(Cl)cc2)cc1C(=O)/C=C/c1ccc(F)cc1 [Compound 3g, (E)-1-(2-Amino-5-((E)-4-chlorostyryl)phenyl)-3-(4-fluorophenyl)prop-2-en-1-one] | 5.2 ± 0.53 | 1.7 ± 0.25 | 15.1 ± 0.19 | 19.2 ± 0.47 | 197 to 198 | – | – | – | – | – | – | –
12 | O=C1O[C@H]([C@@H](O)CO)C(O)=C1O [Ascorbic acid, reference compound] | 4.2 ± 0.27 | – | 6.14 ± 0.21 | – | – | – | – | – | – | – | – | –
13 | Nc1ccc(/C=C/c2ccccc2)cc1C(=O)/C=C/c1cccc(F)c1 [Compound 3a, (E)-1-(2-Amino-5-((E)-styryl)phenyl)-3-(3-fluorophenyl)prop-2-en-1-one] | 21.6 ± 0.32 | 10.7 ± 0.21 | 18.9 ± 0.54 | 17.8 ± 0.32 | 129 to 130 | – | – | – | – | – | – | –
